What was measured:
human ERβ = target: T1, human ERβ (Homo sapiens, UniProt Q92731); assay: Radioligand binding competition with [3H]-17β-estradiol, ERβ; details: human ERβ ligand binding domain extract, read-out: ER-β IC50
T1 construct: M214-Q530 of human ERβ; Flag (C); made in house; host or cells: E. coli BL21(DE3), clarified lysate

human ERα = target: T2, human ERα (Homo sapiens, UniProt P03372); assay: Radioligand binding competition with [3H]-17β-estradiol, ERα; details: human ERα ligand binding domain extract, read-out: ER-α IC50
T2 construct: amino acids M250-V595 of human ERα; His (N); Flag (C); made in house; host or cells: E. coli BL21(DE3), clarified lysate
T2 sequence (P03372 250-595): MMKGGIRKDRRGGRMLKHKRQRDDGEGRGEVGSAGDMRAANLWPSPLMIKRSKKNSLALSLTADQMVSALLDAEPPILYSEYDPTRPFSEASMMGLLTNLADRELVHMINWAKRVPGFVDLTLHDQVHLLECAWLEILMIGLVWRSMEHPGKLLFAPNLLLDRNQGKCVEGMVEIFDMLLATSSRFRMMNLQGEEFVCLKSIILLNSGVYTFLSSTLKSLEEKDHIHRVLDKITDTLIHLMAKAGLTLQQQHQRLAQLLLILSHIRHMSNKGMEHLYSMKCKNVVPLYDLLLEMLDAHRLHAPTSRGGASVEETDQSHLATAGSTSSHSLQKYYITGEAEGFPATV

[1] = test system: metallothionein-II mRNA in Saos-2 cells; assay: Regulation of metallothionein II mRNA in Saos-2 cells; format: cell-based
Text: Estrogens acting through ERβ, but not ERα can upregulate metallothionein II mRNA levels in Saos-2 cells as described by Harris [Endocrinology 142: 645-652 (2001)]. Results from this test procedure can be combined with results from the test procedure described below (ERE reporter test procedure) to generate a selectivity profile for compounds of this invention (see also WO 00/37681).

T1 sequence (Q92731 214-530): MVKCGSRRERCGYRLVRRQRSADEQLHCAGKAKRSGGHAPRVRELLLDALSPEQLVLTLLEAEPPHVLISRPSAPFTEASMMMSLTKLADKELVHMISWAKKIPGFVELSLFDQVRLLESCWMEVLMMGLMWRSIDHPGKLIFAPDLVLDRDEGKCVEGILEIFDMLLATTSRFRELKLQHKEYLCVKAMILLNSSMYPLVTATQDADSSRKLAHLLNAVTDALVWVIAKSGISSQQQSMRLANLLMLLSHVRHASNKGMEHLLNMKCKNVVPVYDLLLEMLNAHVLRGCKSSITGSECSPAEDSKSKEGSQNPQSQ

## Cc1c(-c2ccc(O)cc2)sc(C=O)c1-c1cccc(O)c1 [Example 1, 3-(3-Hydroxyphenyl)-5-(4-hydroxyphenyl)-4-methylthiophene-2-carbaldehyde]
Human ERβ
  IC50: 54 nM
Human ERα
  IC50: 212 nM
other
  melting point: 103 to 104 °C

## Cc1ccc(O)cc1-c1c(C=O)sc(-c2ccc(O)cc2)c1C [Example 4, 3-(5-Hydroxy-2-methylphenyl)-5-(4-hydroxyphenyl)-4-methyl-2-thiophenecarbaldehyde]
Human ERβ
  IC50: 174 nM
Human ERα
  IC50: 464 nM

## Cc1cc(O)ccc1-c1c(C=O)sc(-c2ccc(O)c(F)c2)c1C [Example 9, 5-(3-Fluoro-4-hydroxyphenyl)-3-(4-hydroxy-2-methylphenyl)-4-methylthiophene-2-carbaldehyde]
Human ERβ
  IC50: 12 nM
Human ERα
  IC50: 85 nM

## Cc1cc(O)ccc1-c1sc(C=O)c(-c2ccc(O)c(F)c2)c1C [Example 12, 3-(3-Fluoro-4-hydroxyphenyl)-5-(4-hydroxy-2-methylphenyl)-4-methylthiophene-2-carbaldehyde]
Human ERβ
  IC50: 13 nM
Human ERα
  IC50: 89 nM

## Cc1cc(O)ccc1-c1c(C=O)sc(-c2ccc(O)cc2)c1C [Example 3, 3-(4-Hydroxy-2-methylphenyl)-5-(4-hydroxyphenyl)-4-methyl-2-thiophenecarbaldehyde]
Human ERβ
  IC50: 5.5 nM
Human ERα
  IC50: 29 nM
other
  melting point: 244 to 247 °C

## Cc1c(-c2ccc(O)cc2)sc(C=NO)c1-c1ccc(O)cc1 (mixture of isomers) [Example 18, 3,5-Bis(4-hydroxyphenyl)-4-methylthiophene-2-carbaldehyde oxime]
Human ERβ
  IC50: 42 nM
Human ERα
  IC50: 86 nM

## Cc1c(-c2ccc(O)cc2)sc(C=O)c1-c1ccc(O)c(Cl)c1 [Example 7, 3-(3-Chloro-4-hydroxyphenyl)-5-(4-hydroxyphenyl)-4-methylthiophene-2-carbaldehyde]
Human ERβ
  IC50: 1.7 nM
Human ERα
  IC50: 31 nM

## Cc1c(-c2ccc(O)cc2)sc(C=O)c1-c1ccc(O)c(C=O)c1 [Example 6, 3-(3-Formyl-4-hydroxyphenyl)-5-(4-hydroxyphenyl)-4-methyl-2-thiophenecarbaldehyde]
Human ERβ
  IC50: 71 nM
Human ERα
  IC50: 515 nM
other
  melting point: 228 to 230 °C

## CON=Cc1sc(-c2ccc(O)cc2)c(C)c1-c1ccc(O)cc1 [Example 20, 3,5-Bis(4-hydroxyphenyl)-4-methylthiophene-2-carbaldehyde O-methyloxime]
Human ERβ
  IC50: 28 nM
Human ERα
  IC50: 152 nM

## Cc1cc(O)ccc1-c1sc(C=O)c(-c2ccc(O)cc2)c1C [Example 11, 5-(4-Hydroxy-2-methylphenyl)-3-(4-hydroxyphenyl)-4-methyl-2-thiophenecarbaldehyde]
Human ERβ
  IC50: 7.8 nM
Human ERα
  IC50: 68 nM

## Cc1c(-c2ccc(O)cc2)sc(C=O)c1-c1ccc(O)cc1 [Example 15, 3,5-Bis(4-hydroxyphenyl)-4-methylthiophene-2-carbaldehyde]
Human ERβ
  IC50: 2.1 nM
Human ERα
  IC50: 31 nM
[1]
  Fold upregulation of metallothionein-II mRNA: 6.0
other
  melting point: 223 to 225 °C

## Cc1c(-c2ccc(O)c(F)c2)sc(C=O)c1-c1ccc(O)c(Cl)c1 [Example 10, 3-(3-Chloro-4-hydroxyphenyl)-5-(3-fluoro-4-hydroxyphenyl)-4-methylthiophene-2-carbaldehyde]
Human ERβ
  IC50: 4 nM
Human ERα
  IC50: 88 nM
other
  melting point: 252 to 254 °C

## Cc1c(-c2cccc(O)c2)sc(C#N)c1-c1ccc(O)cc1 [Example 22, 3-(4-Hydroxyphenyl)-5-(3-hydroxyphenyl)-4-methylthiophene-2-carbonitrile]
Human ERβ
  IC50: 73 nM
Human ERα
  IC50: 299 nM

## Cc1c(-c2ccc(O)c(F)c2)sc(C=O)c1-c1ccc(O)cc1 [Example 8, 5-(3-Fluoro-4-hydroxyphenyl)-3-(4-hydroxyphenyl)-4-methyl-2-thiophenecarbaldehyde]
Human ERβ
  IC50: 5.3 nM
Human ERα
  IC50: 93 nM
other
  melting point: 227 to 229 °C

## Cc1c(-c2ccc(O)cc2)sc(C=NO)c1-c1cccc(O)c1 (mixture of isomers) [Example 16, 3-(3-Hydroxyphenyl)-5-(4-hydroxyphenyl)-4-methylthiophene-2-carbaldehyde oxime]
Human ERβ
  IC50: 91 nM
Human ERα
  IC50: 275 nM

## Cc1c(-c2ccc(O)cc2)sc(C=O)c1-c1ccc(O)c(F)c1 [Example 5, 3-(3-Fluoro-4-hydroxyphenyl)-5-(4-hydroxyphenyl)-4-methyl-2-thiophenecarbaldehyde]
Human ERβ
  IC50: 1.8 nM
Human ERα
  IC50: 35.5 nM

## Cc1c(-c2ccc(O)cc2)sc(C#N)c1-c1ccc(O)cc1 [Example 19, 3,5-Bis(4-hydroxyphenyl)-4-methylthiophene-2-carbonitrile]
Human ERβ
  IC50: 3.6 nM
Human ERα
  IC50: 40 nM

## Cc1c(-c2ccc(O)cc2)sc(C#N)c1-c1cccc(O)c1 [Example 17, 3-(3-Hydroxyphenyl)-5-(4-hydroxyphenyl)-4-methylthiophene-2-carbonitrile]
Human ERβ
  IC50: 83 nM
Human ERα
  IC50: 305 nM
other
  melting point: 220 to 222 °C

## Cc1c(-c2ccc(O)c(Cl)c2)sc(C=O)c1-c1ccc(O)c(F)c1 [Example 14, 5-(3-Chloro-4-hydroxyphenyl)-3-(3-fluoro-4-hydroxyphenyl)-4-methylthiophene-2-carbaldehyde]
Human ERβ
  IC50: 16 nM
Human ERα
  IC50: 157 nM
other
  melting point: 227 to 229 °C

## Cc1c(-c2ccc(O)c(Cl)c2)sc(C=O)c1-c1ccc(O)cc1 [Example 13, 5-(3-Chloro-4-hydroxyphenyl)-3-(4-hydroxyphenyl)-4-methylthiophene-2-carbaldehyde]
Human ERβ
  IC50: 27 nM
Human ERα
  IC50: 293 nM

## Cc1c(-c2cccc(O)c2)sc(C=NO)c1-c1ccc(O)cc1 (mixture of isomers) [Example 21, 3-(4-Hydroxyphenyl)-5-(3-hydroxyphenyl)-4-methylthiophene-2-carbaldehyde oxime]
Human ERβ
  IC50: 123 nM
Human ERα
  IC50: 196 nM
other
  melting point: 240 to 241 °C

## CON=Cc1sc(-c2ccc(O)cc2C)c(C)c1-c1ccc(O)c(F)c1 [Example 23, 3-(3-Fluoro-4-hydroxyphenyl)-5-(4-hydroxy-2-methylphenyl)-4-methylthiophene-2-carbaldehyde O-methyloxime]
Human ERβ
  IC50: 57 nM
Human ERα
  IC50: 73 nM
other
  melting point: 172 to 177 °C

Reference: patent US6835745B2, “Phenyl substituted thiophenes as estrogenic agents” (Wyeth, priority 2002, dated 2004)
